{"source": "patent US11850253B2", "about": "“Two component compositions” (Asamedic AS, priority 2017, dated 2023)", "assay": "Dissolution of ASA together with sodium carbonate (one component) in 15 ml pure water in two-component device", "assay_type": "physicochemical", "method": "In the following example ASA and the disodium salt of carbonic acid (Na2CO3) are dissolved at the same time in 15 ml pure water.\n300 mg ASA and 258-263 mg sodium carbonate (Na2CO3) were placed together in the powder compartment of the test device used in example 1, and 15 ml of pure water was filled into the container (bottle) of said device. After releasing the ASA and sodium carbonate into the water, the solution was shaken until all ASA was dissolved.", "data": [{"smiles": "CC(=O)Oc1ccccc1C(=O)O", "note": "[ASA, acetylsalicylic acid]", "values": [{"measurement": "pH of the solutions after dissolution of ASA and the carbonate salt", "setting": "300 mg ASA and 258-263 mg Na2CO3, 15 ml pure water", "result": "9.41-9.43"}, {"measurement": "Time before ASA was dissolved", "setting": "300 mg ASA and 258-263 mg Na2CO3 together as powder, 15 ml pure water", "result": "approx. 120 sec."}]}]}
